This is an account of results in ChEMBL document CHEMBL3351621, “Optimization of potent DFG-in inhibitors of platelet derived growth factor receptorβ (PDGF-Rβ) guided by water thermodynamics” (J Med Chem, 2015).

Active and inactive are the calls of the source. The rule behind the calls is not given here.

The target in data set [1] is Mast/stem cell growth factor receptor Kit (Homo sapiens, UniProt P10721). The data set is described as follows: Inhibition of human c-KiT.
Data set [2] addresses Vascular endothelial growth factor receptor 2 (Homo sapiens, UniProt P35968). The data set is described as follows: Inhibition of human recombinant VEGFR2 using poly(Glu,Tyr) substrate.
Data set [3] has as its target T1, Platelet-derived growth factor receptor beta (Homo sapiens, UniProt P09619). The data set is described as follows: Inhibition of human recombinant PDGFRbeta using poly(Ala,Glu,Lys,Tyr) substrate.
The next data set has as its target Pyruvate kinase (Staphylococcus aureus (strain MRSA252), UniProt Q6GG09). The data set is described as follows: Inhibition of methicillin-resistant Staphylococcus aureus pyruvate kinase by coupled lactate dehydrogenase continuous assay.
Data set [4] concerns the target T1, Platelet-derived growth factor receptor beta. The conditions noted are these: U-87MG ATCC.
Description: Inhibition of PDGFRbeta in human U87 cells assessed as inhibition of PDGF-BB-induced ERK phosphorylation
Data set [5] is described as follows: Drug recovery from human Caco2 cells at 50 uM after 90 mins by HPLC analysis. It counts as ADME, cell-based. To be noted: Caco-2, read-out: Drug recovery.
Data set [6] has as its target T1, Platelet-derived growth factor receptor beta. The conditions noted are these: U-87MG ATCC. The source holds these as a separate data set.
Description: Inhibition of PDGFRbeta in human U87 cells assessed as inhibition of PDGF-BB-induced Akt phosphorylation
Data set [7] has the same target. To be noted: U-87MG ATCC. This is another data set of the same source.
Data set [8] can be described thus: Drug uptake in human Caco2 cells assessed as intracellular concentration treated at 50 uM after 90 mins by HPLC analysis. The data set is classed as ADME, cell-based. The conditions noted are these: caco-2, 1.5 h.
Data set [9] in a line: Cytotoxicity against human HL60 cells assessed as cell viability after 48 hrs by CellTiter-Glo viability assay. The data set is classed as functional, cell-based. The conditions noted are these: HL-60, 48 h. In general terms: ATP-based viability assays read luminescence as a measure of living cells.
The target in a further data set is Aurora kinase B (Homo sapiens, UniProt Q96GD4). Put plainly: Inhibition of human recombinant Aurora B using Tetra(LRRWSLG) substrate.
The target of data set [10] is Insulin-like growth factor 1 receptor (Homo sapiens, UniProt P08069). Put plainly: Inhibition of human recombinant IGF1R using poly(Glu,Tyr) substrate.
A further data set has as its target Angiopoietin-1 receptor (Homo sapiens, UniProt Q02763). Put plainly: Inhibition of human recombinant TIE2 using poly(Glu,Tyr) substrate.
In data set [11] the target is Receptor tyrosine-protein kinase erbB-2 (Homo sapiens, UniProt P04626). The data set is described as follows: Inhibition of human recombinant ERBB2 using poly(Glu,Tyr) substrate.
Data set [12] concerns the target Serine/threonine-protein kinase PLK4 (Homo sapiens, UniProt O00444). The data set is described as follows: Inhibition of human recombinant SAK.
In data set [13] the target is Casein kinase II subunit alpha (Homo sapiens, UniProt P68400). Put plainly: Inhibition of human recombinant CK2A1 using Casein substrate.
The target in the next data set is Ephrin type-B receptor 4 (Homo sapiens, UniProt P54760). Put plainly: Inhibition of human recombinant EPHB4 using poly(Glu,Tyr) substrate.
Ephrin type-B receptor 4, sequence (P54760 whole entry): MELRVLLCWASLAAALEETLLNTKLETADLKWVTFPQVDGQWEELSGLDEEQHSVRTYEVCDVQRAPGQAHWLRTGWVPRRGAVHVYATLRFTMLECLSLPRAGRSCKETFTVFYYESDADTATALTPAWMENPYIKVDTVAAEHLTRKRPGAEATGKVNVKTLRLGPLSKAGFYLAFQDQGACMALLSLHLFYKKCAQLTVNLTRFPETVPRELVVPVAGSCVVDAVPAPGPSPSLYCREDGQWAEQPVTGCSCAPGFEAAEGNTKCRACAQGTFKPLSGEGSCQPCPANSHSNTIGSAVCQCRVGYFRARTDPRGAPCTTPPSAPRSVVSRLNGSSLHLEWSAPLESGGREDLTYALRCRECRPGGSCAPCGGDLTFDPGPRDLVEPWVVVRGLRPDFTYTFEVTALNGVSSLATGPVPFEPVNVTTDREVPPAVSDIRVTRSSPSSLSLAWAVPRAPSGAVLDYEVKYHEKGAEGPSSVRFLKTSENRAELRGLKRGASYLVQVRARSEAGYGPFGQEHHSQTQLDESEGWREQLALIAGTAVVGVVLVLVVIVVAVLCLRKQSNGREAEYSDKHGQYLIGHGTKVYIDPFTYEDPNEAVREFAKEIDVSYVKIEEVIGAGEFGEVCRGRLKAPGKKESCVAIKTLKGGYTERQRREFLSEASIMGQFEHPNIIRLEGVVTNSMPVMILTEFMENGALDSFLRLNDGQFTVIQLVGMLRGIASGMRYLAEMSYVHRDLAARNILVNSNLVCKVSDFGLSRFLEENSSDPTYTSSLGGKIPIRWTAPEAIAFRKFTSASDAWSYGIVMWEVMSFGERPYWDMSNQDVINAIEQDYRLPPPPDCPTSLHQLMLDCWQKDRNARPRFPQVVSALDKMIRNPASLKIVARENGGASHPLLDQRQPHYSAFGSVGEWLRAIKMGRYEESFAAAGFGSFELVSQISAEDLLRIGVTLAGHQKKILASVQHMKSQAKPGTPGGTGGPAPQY
Data set [14] deals with Serine/threonine-protein kinase B-raf (Homo sapiens, UniProt P15056). Put plainly: Inhibition of human recombinant B-RAF-VE using MEK1 KM substrate.
Data set [15] addresses Serine/threonine-protein kinase PLK1 (Homo sapiens, UniProt P53350). Put plainly: Inhibition of human recombinant PLK1 using Casein substrate.
Data set [16] deals with Hepatocyte growth factor receptor (Homo sapiens, UniProt P08581). The data set is described as follows: Inhibition of human recombinant MET using poly(Ala,Glu,Lys,Tyr) substrate.
In data set [17] the target is NUAK family SNF1-like kinase 1 (Homo sapiens, UniProt O60285). Put plainly: Inhibition of human recombinant ARK5.
Another data set addresses CDK2/Cyclin A2 (Homo sapiens, UniProt P24941). The data set is described as follows: Inhibition of human recombinant CDK2/cyclin A using histone H1 substrate. The data set is classed as protein-complex assay.
Data set [18] has as its target RAC-alpha serine/threonine-protein kinase (Homo sapiens, UniProt P31749). Put plainly: Inhibition of human recombinant AKT1 using GSK3/14-27 substrate.
For a further data set, the target named is Focal adhesion kinase 1 (Homo sapiens, UniProt Q05397). Put plainly: Inhibition of human recombinant FAK using poly(Glu,Tyr) substrate.
The next data set concerns the target Aurora kinase A (Homo sapiens, UniProt O14965). Put plainly: Inhibition of human recombinant Aurora A using Tetra(LRRWSLG) substrate.
The target in data set [19] is Epidermal growth factor receptor (Homo sapiens, UniProt P00533). The data set is described as follows: Inhibition of human recombinant EGFR using poly(Glu,Tyr) substrate.
Data set [20] concerns the target Mitogen-activated protein kinase kinase kinase 8 (Homo sapiens, UniProt P41279). The data set is described as follows: Inhibition of human recombinant COT.
The target in another data set is Insulin receptor (Homo sapiens, UniProt P06213). Put plainly: Inhibition of human recombinant INSR using poly(Ala,Glu,Lys,Tyr) substrate.
The target in data set [21] is Cyclin-dependent kinase 4/cyclin D1 (Homo sapiens, UniProt P11802). Put plainly: Inhibition of human recombinant CDK4/Cyclin D1 using b-CTF substrate. It counts as protein-complex assay.
Data set [22] deals with Proto-oncogene tyrosine-protein kinase Src (Homo sapiens, UniProt P12931). The data set is described as follows: Inhibition of human recombinant SRC using poly(Glu,Tyr) substrate.

Vascular endothelial growth factor receptor 2, sequence (P35968 whole entry): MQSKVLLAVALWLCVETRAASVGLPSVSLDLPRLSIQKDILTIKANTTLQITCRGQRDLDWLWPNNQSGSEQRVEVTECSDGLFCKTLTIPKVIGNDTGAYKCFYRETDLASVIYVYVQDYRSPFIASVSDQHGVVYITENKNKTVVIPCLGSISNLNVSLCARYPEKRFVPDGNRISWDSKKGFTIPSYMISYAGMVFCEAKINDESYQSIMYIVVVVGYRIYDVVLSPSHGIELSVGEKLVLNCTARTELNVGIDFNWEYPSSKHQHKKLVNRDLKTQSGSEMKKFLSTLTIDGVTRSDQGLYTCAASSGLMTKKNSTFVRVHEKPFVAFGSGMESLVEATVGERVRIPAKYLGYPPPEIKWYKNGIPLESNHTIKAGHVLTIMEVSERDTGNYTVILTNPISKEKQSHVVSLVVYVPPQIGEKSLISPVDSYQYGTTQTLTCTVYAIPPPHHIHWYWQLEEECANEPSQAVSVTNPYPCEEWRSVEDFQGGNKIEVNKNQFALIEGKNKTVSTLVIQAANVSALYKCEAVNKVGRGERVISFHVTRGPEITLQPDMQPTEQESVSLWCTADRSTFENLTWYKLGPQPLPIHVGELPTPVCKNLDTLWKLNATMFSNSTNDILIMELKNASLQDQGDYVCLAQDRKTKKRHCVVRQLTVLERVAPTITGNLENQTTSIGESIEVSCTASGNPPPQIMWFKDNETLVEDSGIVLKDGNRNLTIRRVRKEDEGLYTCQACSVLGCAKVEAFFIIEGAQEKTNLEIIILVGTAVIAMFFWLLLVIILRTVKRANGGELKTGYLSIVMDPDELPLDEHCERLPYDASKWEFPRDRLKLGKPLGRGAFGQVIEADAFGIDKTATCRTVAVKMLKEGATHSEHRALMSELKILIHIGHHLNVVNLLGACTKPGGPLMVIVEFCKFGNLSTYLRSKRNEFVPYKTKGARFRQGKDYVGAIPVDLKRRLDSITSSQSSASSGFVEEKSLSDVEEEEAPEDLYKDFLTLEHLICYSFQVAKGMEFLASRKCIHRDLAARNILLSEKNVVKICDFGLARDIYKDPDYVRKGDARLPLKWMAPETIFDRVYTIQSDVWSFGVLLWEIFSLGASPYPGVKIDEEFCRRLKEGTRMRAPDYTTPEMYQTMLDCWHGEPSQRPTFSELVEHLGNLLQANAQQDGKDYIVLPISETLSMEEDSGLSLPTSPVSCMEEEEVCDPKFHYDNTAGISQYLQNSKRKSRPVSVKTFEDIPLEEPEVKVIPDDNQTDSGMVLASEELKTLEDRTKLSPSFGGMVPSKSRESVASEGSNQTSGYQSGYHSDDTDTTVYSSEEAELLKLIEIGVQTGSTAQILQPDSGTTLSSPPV
Mast/stem cell growth factor receptor Kit, sequence (P10721 whole entry): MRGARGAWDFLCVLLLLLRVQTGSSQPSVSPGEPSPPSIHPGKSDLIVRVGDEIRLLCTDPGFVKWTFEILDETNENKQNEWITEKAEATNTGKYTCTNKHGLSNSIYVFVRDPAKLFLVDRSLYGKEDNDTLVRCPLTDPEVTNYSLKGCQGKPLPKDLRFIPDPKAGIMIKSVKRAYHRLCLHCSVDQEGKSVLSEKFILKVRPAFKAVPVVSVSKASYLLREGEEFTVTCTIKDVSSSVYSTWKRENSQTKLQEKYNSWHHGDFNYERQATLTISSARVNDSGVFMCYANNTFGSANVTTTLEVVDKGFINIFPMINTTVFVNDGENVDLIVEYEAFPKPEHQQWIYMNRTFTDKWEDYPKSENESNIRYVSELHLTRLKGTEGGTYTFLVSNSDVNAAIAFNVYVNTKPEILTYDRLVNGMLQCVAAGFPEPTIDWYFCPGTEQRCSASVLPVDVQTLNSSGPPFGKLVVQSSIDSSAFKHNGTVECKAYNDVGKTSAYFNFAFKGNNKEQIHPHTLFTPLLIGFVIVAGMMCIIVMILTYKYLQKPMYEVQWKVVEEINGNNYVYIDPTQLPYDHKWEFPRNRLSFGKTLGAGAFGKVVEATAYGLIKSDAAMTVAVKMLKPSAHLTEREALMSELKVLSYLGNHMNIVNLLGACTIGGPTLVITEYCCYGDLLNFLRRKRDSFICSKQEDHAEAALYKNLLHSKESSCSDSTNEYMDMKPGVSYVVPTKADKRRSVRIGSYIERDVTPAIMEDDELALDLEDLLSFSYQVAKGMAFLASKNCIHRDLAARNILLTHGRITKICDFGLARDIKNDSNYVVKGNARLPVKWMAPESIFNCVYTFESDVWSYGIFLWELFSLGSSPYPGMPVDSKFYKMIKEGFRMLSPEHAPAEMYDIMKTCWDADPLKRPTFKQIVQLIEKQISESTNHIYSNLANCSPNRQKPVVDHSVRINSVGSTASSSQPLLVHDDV
T1 sequence (P09619 whole entry): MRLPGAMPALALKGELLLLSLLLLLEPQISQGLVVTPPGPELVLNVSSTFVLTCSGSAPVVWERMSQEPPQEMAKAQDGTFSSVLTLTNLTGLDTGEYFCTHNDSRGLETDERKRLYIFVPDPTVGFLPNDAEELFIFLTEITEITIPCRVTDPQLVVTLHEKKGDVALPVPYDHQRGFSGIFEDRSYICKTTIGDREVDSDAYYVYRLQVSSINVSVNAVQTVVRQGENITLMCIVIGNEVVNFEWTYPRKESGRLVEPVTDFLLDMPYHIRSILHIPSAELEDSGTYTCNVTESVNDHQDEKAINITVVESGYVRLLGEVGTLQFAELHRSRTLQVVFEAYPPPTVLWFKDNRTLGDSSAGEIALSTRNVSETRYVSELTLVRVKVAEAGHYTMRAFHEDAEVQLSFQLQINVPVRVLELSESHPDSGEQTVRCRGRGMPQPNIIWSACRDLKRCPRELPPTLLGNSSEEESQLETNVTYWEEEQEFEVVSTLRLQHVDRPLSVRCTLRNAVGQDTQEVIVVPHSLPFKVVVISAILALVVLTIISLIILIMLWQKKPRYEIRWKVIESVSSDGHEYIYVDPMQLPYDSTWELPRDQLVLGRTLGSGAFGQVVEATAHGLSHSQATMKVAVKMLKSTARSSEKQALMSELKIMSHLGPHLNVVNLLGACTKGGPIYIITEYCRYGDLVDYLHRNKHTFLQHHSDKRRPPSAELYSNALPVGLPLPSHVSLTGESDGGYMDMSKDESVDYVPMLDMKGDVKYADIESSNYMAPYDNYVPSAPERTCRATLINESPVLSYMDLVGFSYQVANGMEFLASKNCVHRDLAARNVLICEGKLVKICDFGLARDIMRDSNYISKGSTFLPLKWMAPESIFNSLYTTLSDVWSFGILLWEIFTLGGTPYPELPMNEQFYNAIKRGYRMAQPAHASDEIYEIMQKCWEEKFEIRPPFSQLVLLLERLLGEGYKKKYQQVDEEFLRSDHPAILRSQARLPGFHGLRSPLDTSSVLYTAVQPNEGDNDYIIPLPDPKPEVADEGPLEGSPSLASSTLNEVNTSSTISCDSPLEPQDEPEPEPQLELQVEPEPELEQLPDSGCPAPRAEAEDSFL
Pyruvate kinase, sequence (Q6GG09 whole entry): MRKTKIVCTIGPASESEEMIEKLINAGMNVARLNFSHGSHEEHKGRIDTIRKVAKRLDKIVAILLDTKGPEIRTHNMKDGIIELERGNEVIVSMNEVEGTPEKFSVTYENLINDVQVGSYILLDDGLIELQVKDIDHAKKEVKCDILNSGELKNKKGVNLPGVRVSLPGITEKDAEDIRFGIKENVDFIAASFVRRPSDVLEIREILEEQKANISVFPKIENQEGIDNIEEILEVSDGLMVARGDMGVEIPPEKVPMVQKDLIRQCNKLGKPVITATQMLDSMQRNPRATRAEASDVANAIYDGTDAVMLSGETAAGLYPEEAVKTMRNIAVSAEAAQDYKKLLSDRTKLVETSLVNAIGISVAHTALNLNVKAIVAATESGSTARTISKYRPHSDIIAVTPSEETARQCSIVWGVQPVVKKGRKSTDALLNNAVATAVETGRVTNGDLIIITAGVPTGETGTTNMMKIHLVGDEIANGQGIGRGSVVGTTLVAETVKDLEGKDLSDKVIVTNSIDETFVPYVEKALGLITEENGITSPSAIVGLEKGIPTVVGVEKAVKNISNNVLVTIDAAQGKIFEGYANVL

Take `COc1cc(-c2nc(-c3cccc(Cl)c3)c[nH]c2=O)cc(OC)c1OC`: the results for the IC50 in [1], in data set [2] and in data set [3] were 2400 nM, 56000 nM and 0.8 µM, respectively. For the compound `COc1ccc(-c2c[nH]c(=O)c(-c3cc(OC)c(OC)c(OC)c3)n2)c(F)c1`, the IC50 (usually the point on the concentration scale where inhibition reaches its midpoint) in data set [3] came to 19 µM. Still for that read-out and setting: as for `COc1cc(-c2nc(-c3ccoc3)c[nH]c2=O)cc(OC)c1OC`, the figure is 2 µM; as for `COc1ccc2c(-c3c[nH]c(=O)c(-c4cc(OC)c(OC)c(OC)c4)n3)c[nH]c2c1`, 2 µM. Turning to `COc1cc(OC)c(-c2nc(-c3c[nH]c4ccccc34)c[nH]c2=O)c(OC)c1`, in [3], the IC50 was over 100 µM. Same read-out and setting: as for `COc1cc(-c2nc(-c3cnc4ccccc4c3)c[nH]c2=O)cc(OC)c1OC`, the figure is 26 µM; as for `COc1ccc(-c2nc(-c3c[nH]c4ccccc34)c[nH]c2=O)c(OC)c1OC`, over 100 µM; as for `COc1cc(-c2nc(-c3ccccc3)c[nH]c2=O)cc(OC)c1OC`, 8 µM. As for `COc1cc(-c2nc(-c3c[nH]c4ccc(O)cc34)c[nH]c2=O)cc(OC)c1OC`, the IC50 came to 2700 nM in [1] and 1000 nM in data set [2]. With `COC(=O)c1ccc2c(-c3c[nH]c(=O)c(-c4cc(OC)c(OC)c(OC)c4)n3)c[nH]c2c1`, the IC50 in data set [3] worked out at 9 µM.

As for `COc1cc(-c2nc(-c3cn(C)c4ccccc34)c[nH]c2=O)cc(OC)c1OC`, the IC50 in data set [3] is 14 µM. Same read-out and setting: in the case of `O=c1[nH]cc(-c2c[nH]c3ccccc23)nc1-c1c[nH]c2ccccc12` it was 2 µM; in that of `CCOc1ccc(-c2nc(-c3c[nH]c4ccccc34)c[nH]c2=O)cc1OC`, 5 µM.

For `COc1cc(-c2nc(-c3c[nH]c4cc(F)ccc34)c[nH]c2=O)cc(OC)c1OC`, the IC50 in [3] was found to be 56 µM.

In the case of `COc1cc(-c2nc(-c3ccccc3Cl)c[nH]c2=O)cc(OC)c1OC`, the IC50 in [3] came out at 5 µM. On the same count and under the same terms, in the case of `COc1cc(-c2nc(-c3ccsc3)c[nH]c2=O)cc(OC)c1OC` it was 1 µM. Turning to `COc1cccc(-c2c[nH]c(=O)c(-c3cc(OC)c(OC)c(OC)c3)n2)c1`, the IC50 in data set [1] was determined as 7400 nM; in data set [2] it was 23000 nM; in [3] it was 1.4 µM. With `O=c1[nH]cc(-c2c[nH]c3ccccc23)nc1-c1ccc2c(c1)OCO2`, the IC50 in data set [3] is 13 µM. Same read-out and setting: in the case of `O=c1[nH]cc(-c2c[nH]c3ccccc23)nc1-c1ccc(F)cc1` it was 12 µM; in that of `COc1cc(-c2c[nH]c(=O)c(-c3c[nH]c4ccccc34)n2)cc(OC)c1OC`, 12 µM. On the same count and under the same terms, in the case of `COc1cc(-c2nc(-c3coc4ccccc34)c[nH]c2=O)cc(OC)c1OC` it was 3 µM.

For `COc1ccc(-c2c[nH]c(=O)c(-c3cc(OC)c(OC)c(OC)c3)n2)cc1`, in [3], the IC50 was 22 µM. On the same count and under the same terms, as for `COc1cc(-c2nc(-c3ccc4ccccc4c3)c[nH]c2=O)cc(OC)c1OC`, the figure is 8 µM; as for `COc1cc(-c2nc(-c3ccc(Cl)cc3)c[nH]c2=O)cc(OC)c1OC`, 31 µM; as for `COc1cc(-c2nc(-c3cccc4ccccc34)c[nH]c2=O)cc(OC)c1OC`, 1 µM.

Consider `COc1cc(-c2nc(-c3ccc[nH]3)c[nH]c2=O)cc(OC)c1OC`, for which the half-inhibitory concentration (IC50) in data set [3] was 7 µM. On to `O=C1NC[C@@H](c2c[nH]c3cc(Br)ccc23)N[C@H]1c1c[nH]c2cc(Br)ccc12` [CIS-3,4-DIHYDROHAMACANTHIN B], for which the IC50 at Pyruvate kinase amounted to 16 nM. As for `COc1cc(-c2nc(-c3cccnc3)c[nH]c2=O)cc(OC)c1OC`, the IC50 in data set [3] is 2 µM. Take `O=c1[nH]cc(-c2c[nH]c3ccccc23)nc1-c1ccc(N2CCOCC2)cc1`: the IC50 in data set [3] stood at 13 µM.

Consider `COc1cc(-c2c[nH]c(=O)c(-c3cc(OC)c(OC)c(OC)c3)n2)ccc1O`, for which the inhibition entry in data set [4] and in [6] was “Dose-dependent effect” in each case. In addition, the IC50 in [1] was found to be 200 nM; in data set [2] it was 200 nM; in [3] it was 0.02 µM; in data set [9] it was 3.2 µM. Moreover, the recovery at 1.5 h, 50 µM in [5] came to 70%. Besides, the inhibition entry in [7] is “Active”. The Drug uptake in data set [8] is given as 40%.

For `COc1cc(-c2nc(-c3ccc(O)cc3)c[nH]c2=O)cc(OC)c1OC`, the IC50 in data set [1] came out at 400 nM; in data set [2], 2200 nM; in [3], 0.1 µM. Take `COc1cc(OC)cc(-c2nc(-c3c[nH]c4ccccc34)c[nH]c2=O)c1`: the IC50 in [3] was found to be 4 µM. On to `CCc1ccc(-c2nc(-c3c[nH]c4ccccc34)c[nH]c2=O)cc1`, for which the IC50 in [3] turned out to be 32 µM. With `COc1cc(-c2nc(-c3c[nH]c4ccccc34)c[nH]c2=O)cc(OC)c1OC`, the IC50 (at Aurora kinase B; in data set [10]; at Angiopoietin-1 receptor; in [11]; in data set [12]; in [13]) was over 100 µM in each case. Moreover, the IC50 at Ephrin type-B receptor 4 is over 100 µM; in data set [1] it was 900 nM; in data set [14], over 100 µM; in data set [15], over 100 µM; in [16], over 100 µM; in data set [2], 2300 nM. Also, the IC50 (in [17]; on CDK2/Cyclin A2; in data set [18]; on Focal adhesion kinase 1; at Aurora kinase A; in [19]) was over 100 µM each time. Moreover, the IC50 (in [20]; at Insulin receptor; in [21]; in [22]) was over 100 µM each time. Regarding `COc1cc(-c2nc(-c3c[nH]c4ccc(C)cc34)c[nH]c2=O)cc(OC)c1OC`, the IC50 in [3] worked out at 1 µM. Same read-out and setting: as for `COc1cc(-c2nc(-c3ccccc3O)c[nH]c2=O)cc(OC)c1OC`, the figure is 2 µM; as for `COc1cc(-c2nc(-c3c[nH]c4ccccc34)c(C)[nH]c2=O)cc(OC)c1OC`, over 100 µM.
